From ChEMBL document CHEMBL3886683, “Apoptosis signal-regulating kinase inhibitor” (2016)

What was measured:
Cytochrome P450 1A1 = biological target: T1, Cytochrome P450 1A1 (Homo sapiens, UniProt P04798); test: (§1) Inhibition Assay: Six test compound concentrations (0.1, 0.25, 1, 2.5, 10, 25 μM in DMSO; final DMSO concentration=0.3%) are incubated with human liver microsomes ([…]) and NADPH (1 mM) in the presence of the probe substrate ethoxyresorufin (0.5 μM) for 5 min at 37° C. The selective CYP1A inhibitor, alpha-naphthoflavone, is screened alongside the test compounds as a positive control.
T1 sequence (P04798 whole entry): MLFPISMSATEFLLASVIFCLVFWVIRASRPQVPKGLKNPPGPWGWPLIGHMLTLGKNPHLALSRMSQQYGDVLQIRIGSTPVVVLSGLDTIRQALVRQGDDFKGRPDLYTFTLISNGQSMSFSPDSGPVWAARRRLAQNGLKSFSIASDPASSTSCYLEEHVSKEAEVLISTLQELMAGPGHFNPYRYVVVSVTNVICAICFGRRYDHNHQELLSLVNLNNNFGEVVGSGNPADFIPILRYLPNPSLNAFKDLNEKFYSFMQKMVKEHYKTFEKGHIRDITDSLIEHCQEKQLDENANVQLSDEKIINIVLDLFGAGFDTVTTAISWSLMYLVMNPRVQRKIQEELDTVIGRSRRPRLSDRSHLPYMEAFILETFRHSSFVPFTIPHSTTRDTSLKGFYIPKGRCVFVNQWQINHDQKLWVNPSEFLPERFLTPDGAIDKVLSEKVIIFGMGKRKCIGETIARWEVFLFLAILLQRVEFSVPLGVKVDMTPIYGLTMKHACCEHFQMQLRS

Cytochrome P450 2C19 = Cytochrome P450 2C19 (Homo sapiens, UniProt P33261); test: (§2) Inhibition Assay: Six test compound concentrations (0.1, 0.25, 1, 2.5, 10, 25 μM in DMSO; final DMSO concentration=[…]) are incubated with human liver microsomes (0.5 mg/mL) and NADPH (1 mM) in the presence of the probe substrate mephenytoin (25 μM) for 60 min at 37° C. The selective CYP2C19 inhibitor, tranylcypromine, is screened alongside the test compounds as a positive control.
Cytochrome P450 2B6 = biological target: T2, Cytochrome P450 2B6 (Homo sapiens, UniProt P20813); test: Inhibition Assay: Six test compound concentrations (0.1, 0.25, 1, 2.5, 10, 25 μM in DMSO; final DMSO concentration=0.3%) are incubated with human liver microsomes (0.1 mg/mL) and NADPH (1 mM) in the presence of the probe substrate bupropion (110 μM) for 5 min at 37° C. The selective CYP2B6 inhibitor, ticlopidine, is screened alongside the test compounds as a positive control.
T2 sequence (P20813 whole entry): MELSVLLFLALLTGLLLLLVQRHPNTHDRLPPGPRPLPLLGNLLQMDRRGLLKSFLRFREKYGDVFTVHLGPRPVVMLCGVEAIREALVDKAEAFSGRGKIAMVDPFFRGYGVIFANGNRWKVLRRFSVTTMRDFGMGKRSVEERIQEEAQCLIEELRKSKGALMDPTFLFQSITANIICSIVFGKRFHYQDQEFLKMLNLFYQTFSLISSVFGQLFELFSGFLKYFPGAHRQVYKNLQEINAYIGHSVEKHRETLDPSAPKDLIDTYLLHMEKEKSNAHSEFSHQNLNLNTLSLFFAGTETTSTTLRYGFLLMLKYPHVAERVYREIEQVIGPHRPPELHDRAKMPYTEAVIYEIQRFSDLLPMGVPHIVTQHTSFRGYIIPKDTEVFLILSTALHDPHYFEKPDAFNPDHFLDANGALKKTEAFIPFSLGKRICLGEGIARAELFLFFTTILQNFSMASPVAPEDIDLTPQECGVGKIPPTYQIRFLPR

Cytochrome P450 2C8 = biological target: T3, Cytochrome P450 2C8 (Homo sapiens, UniProt P10632); test: as §1, with “substrate paclitaxel (7.5” for “substrate ethoxyresorufin (0.5”, “for 30” for “for 5”, “selective CYP2C8” for “selective CYP1A”, “inhibitor, montelukast,” for “inhibitor, alpha-naphthoflavone,”
T3 sequence (P10632 whole entry): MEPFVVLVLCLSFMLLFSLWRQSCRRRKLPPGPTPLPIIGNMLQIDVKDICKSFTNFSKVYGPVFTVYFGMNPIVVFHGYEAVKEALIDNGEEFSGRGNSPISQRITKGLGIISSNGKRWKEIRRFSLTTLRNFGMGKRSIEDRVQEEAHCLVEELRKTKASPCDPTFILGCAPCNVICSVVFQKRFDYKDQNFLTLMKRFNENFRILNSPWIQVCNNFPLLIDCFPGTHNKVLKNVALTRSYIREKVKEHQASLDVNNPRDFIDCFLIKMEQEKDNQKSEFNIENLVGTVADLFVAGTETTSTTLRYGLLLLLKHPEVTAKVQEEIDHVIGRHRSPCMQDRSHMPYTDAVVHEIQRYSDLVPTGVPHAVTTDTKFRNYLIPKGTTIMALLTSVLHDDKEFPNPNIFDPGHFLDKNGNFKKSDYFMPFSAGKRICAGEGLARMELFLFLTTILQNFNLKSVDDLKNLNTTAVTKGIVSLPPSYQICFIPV

Cytochrome P450 2C9 = Cytochrome P450 2C9 (Homo sapiens, UniProt P11712); test: as §2, with “(1” for “(0.5”, “tolbutamide (120” for “mephenytoin (25”, “CYP2C9” for “CYP2C19”, “sulphaphenazole,” for “tranylcypromine,”
Cytochrome P450 3A4 [1] = biological target: T4, Cytochrome P450 3A4 (Homo sapiens, UniProt P08684); test: (§3) Inhibition Assay: Six test compound concentrations (0.1, 0.25, 1, 2.5, 10, 25 μM in DMSO; final DMSO concentration=0.275%) are incubated with human liver microsomes (0.5 mg/mL) and NADPH (1 mM) in the presence of the probe substrate testosterone (50 μM) for 5 min at 37° C. The selective CYP3A4 inhibitor, ketoconazole, is screened alongside the test compounds as a positive control.
Cytochrome P450 3A4 [2] = biological target: T4, Cytochrome P450 3A4; test: as §3, with “concentration=0.26%)” for “concentration=0.275%)”, “(0.1” for “(0.5”, “midazolam ([…])” for “testosterone (50 μM)”

T4 sequence (P08684 whole entry): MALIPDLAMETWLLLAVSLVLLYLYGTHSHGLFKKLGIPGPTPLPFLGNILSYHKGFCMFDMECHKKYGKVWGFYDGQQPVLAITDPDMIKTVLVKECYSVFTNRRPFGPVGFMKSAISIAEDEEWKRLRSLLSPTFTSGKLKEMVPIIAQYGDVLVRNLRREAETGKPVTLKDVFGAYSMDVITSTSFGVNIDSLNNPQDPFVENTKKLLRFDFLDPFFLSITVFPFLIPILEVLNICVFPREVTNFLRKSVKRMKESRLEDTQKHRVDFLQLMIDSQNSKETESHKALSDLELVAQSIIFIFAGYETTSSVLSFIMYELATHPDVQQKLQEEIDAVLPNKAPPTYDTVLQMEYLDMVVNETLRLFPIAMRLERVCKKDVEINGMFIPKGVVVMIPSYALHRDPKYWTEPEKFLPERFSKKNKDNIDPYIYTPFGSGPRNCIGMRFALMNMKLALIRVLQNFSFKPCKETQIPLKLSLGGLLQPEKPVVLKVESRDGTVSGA
Chain of Cytochrome P450 2C19 (P33261 whole entry): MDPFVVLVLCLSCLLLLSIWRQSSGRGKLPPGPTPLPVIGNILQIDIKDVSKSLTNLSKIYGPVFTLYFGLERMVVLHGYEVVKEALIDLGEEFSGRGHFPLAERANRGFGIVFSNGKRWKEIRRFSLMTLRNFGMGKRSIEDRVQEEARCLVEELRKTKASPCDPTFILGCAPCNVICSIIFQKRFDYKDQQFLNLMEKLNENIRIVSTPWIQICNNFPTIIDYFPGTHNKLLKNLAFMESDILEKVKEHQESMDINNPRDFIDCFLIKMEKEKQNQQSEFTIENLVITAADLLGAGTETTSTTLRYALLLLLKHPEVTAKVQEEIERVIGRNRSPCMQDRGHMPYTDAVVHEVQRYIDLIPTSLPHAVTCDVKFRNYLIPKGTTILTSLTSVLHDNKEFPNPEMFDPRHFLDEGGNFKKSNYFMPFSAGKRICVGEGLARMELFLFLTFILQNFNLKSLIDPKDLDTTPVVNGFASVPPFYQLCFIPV
Chain of Cytochrome P450 2C9 (P11712 whole entry): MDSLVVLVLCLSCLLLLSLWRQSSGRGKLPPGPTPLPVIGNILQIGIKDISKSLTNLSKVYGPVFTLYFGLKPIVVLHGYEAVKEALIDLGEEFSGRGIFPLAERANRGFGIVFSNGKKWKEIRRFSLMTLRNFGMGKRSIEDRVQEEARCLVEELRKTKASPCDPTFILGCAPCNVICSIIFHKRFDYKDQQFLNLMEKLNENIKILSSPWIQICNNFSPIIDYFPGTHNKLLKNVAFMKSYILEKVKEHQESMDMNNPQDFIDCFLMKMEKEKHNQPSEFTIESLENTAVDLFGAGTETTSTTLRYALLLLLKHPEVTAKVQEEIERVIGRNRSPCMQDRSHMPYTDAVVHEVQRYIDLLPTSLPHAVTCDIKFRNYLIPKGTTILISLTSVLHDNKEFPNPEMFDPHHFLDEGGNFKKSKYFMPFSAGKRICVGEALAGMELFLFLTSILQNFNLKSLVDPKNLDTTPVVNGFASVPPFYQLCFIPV

## O=c1ccc2nc3ccc(O)cc3oc-2c1
Cytochrome P450 1A1
  IC50: > 25 µM

## CCC1(c2ccc(O)cc2)NC(=O)N(C)C1=O (configuration not stated)
Cytochrome P450 2C19
  IC50: > 25 µM

## CC(NC(C)(C)CO)C(=O)c1cccc(Cl)c1 (configuration not stated)
Cytochrome P450 2B6
  IC50: 19.2 µM

## CC(=O)O[C@H]1C(=O)[C@@]2(C)[C@H]([C@H](OC(=O)c3ccccc3)[C@]3(O)C[C@H](OC(=O)[C@H](O)[C@@H](NC(=O)c4ccccc4)c4ccccc4)C(C)=C1C3(C)C)[C@]1(OC(C)=O)CO[C@@H]1[C@@H](O)[C@@H]2O
Cytochrome P450 2C8
  IC50: 21.6 µM

## CCCCNC(=O)NS(=O)(=O)c1ccc(CO)cc1
Cytochrome P450 2C9
  IC50: > 25 µM

## C[C@]12CC[C@H]3[C@@H](C[C@@H](O)C4=CC(=O)CC[C@@]43C)[C@@H]1CC[C@@H]2O [6beta-hydroxytestosterone]
Cytochrome P450 3A4 [1]
  IC50: 10.5 µM

## OCc1ncc2n1-c1ccc(Cl)cc1C(c1ccccc1F)=NC2 [ALPHA-HYDROXY-MIDAZOLAM]
Cytochrome P450 3A4 [2]
  IC50: 2.7 µM
